Results as given in ChEMBL document CHEMBL3507680, “University of Dundee, Gates Library screen for HepG2 cell viability”.

Assay: Human HepG2 cell viability assay in 384 well format
Format: toxicity, cell-based
Set-up: dose 125 nL, time 70.5 hour; concentration not given beside the values
Settings: HepG2 cells, read-out: Inhibition

Compound | cytotoxicity at 70.5 h [%]
Cc1cc(CN(C)C(=O)c2ccc(Cl)c(N3CCCC3=O)c2)no1 | 28.1
CN(CC(=O)N1CCCC1c1cnn(C)c1)Cc1ccccc1 (centres undefined) | -11.9
CC(Cn1cccn1)NCc1ccc(Cl)s1 (centres undefined) | -4.9
Cc1ccc(S(=O)(=O)Nc2ccc(=O)n(C)c2)c(Br)c1 | 21.8
COc1ccc2c(c1)CCN2Cc1nc2c(cnn2C)c(=O)[nH]1 | -9.79
CC(Cn1ccnc1)NC(=O)C1(c2ccccc2)CC1 (centres undefined) | -10.4
NC(=O)c1ccc(CNC(=O)Nc2cn[nH]c2)cc1 | 16
Cc1cccc(C2(C(=O)NC(C)Cn3ccnc3)CC2)c1 (centres undefined) | -8.86
CC(Cn1ccnc1)NC(=O)C1(c2cccc(Cl)c2)CC1 (centres undefined) | -1.52
CNS(=O)(=O)Cc1cccc(CNC(=O)Nc2cn[nH]c2)c1 | -4.03
COC(=O)c1ccc(N2CCN(C(=O)c3ccco3)C(C)C2)cc1 (centres undefined) | -3.57
CC(NC(=O)N1CCC(n2cncn2)CC1)c1ccc(F)cc1 (centres undefined) | -6.99
Cn1cc(C2CCCN2C(=O)CCCOc2ccccc2F)cn1 (centres undefined) | -2.53
Cc1nc2n(n1)CC(NCC(=O)Nc1cc(C)on1)CC2 (centres undefined) | -6.78
COc1ccc(C2CCCN2Cc2nc3c(cnn3C)c(=O)[nH]2)cc1 (centres undefined) | -8.35
CCc1cnc(CN(C)C2CCN(CC(=O)Nc3nccs3)C2)o1 (centres undefined) | 23
Cc1noc(CCCC(=O)N2CCCC2c2ccsc2)n1 (centres undefined) | -8.85
Cn1ccnc1CN1CCCN(Cc2noc(C3CC3)n2)CC1 | -1.01
O=C(Nc1ccncc1)C1=NN(c2ccccc2)C(=O)CN1 | -16.1
O=C(Nc1ccccc1F)C1=NN(c2ccccc2)C(=O)CN1 | -4.94
CCCc1noc(CCC(=O)N2CCCC2c2cccc(OC)c2)n1 (centres undefined) | -8.65

Compound | cytotoxicity at 70.5 h [%]
O=C(CCc1nc(-c2ccccn2)no1)N1CCCC1c1ccsc1 (centres undefined) | -10.3
Cc1ccccc1OCC(O)CN1CCC(c2ccn[nH]2)CC1 (centres undefined) | -4.42
COc1ccc(COCC(O)CN2CCC(c3ccn[nH]3)CC2)cc1 (centres undefined) | -8.27
CCc1nnc2n1CCN(C(=O)c1nc(-c3ccco3)sc1C)C2 | -6
c1ncn(CC2CCCN(Cc3nc(-c4ccoc4)no3)C2)n1 (centres undefined) | -10.5
Cc1nn(C)c(C)c1C1CCCN1Cc1ccc(C(N)=O)cc1 (centres undefined) | -10.3
Cc1cnn(CCNCC(O)COc2ccc(F)cc2)c1 (centres undefined) | -10.4
CCc1noc(CN2CCN(C(=O)COC)CC2)n1 | 6.94
Cc1cnn(CC2CCCN2C(=O)CN(C)C2CC2)c1 (centres undefined) | -11.8
CCN(CC)CC(=O)N1CCCC1Cn1cccn1 (centres undefined) | -4.89
Cc1nn(C)c(C)c1C1CCCN1Cc1cccc(OCC(N)=O)c1 (centres undefined) | -7.47
COc1c(C2CCCN2C(=O)c2c(C)noc2C(C)C)c(C)nn1C (centres undefined) | -4.7
Cn1ccnc1CC1CCCN(Cc2noc(C3CC3)n2)C1 (centres undefined) | -9.18
COCCCC(=O)NS(=O)(=O)c1ccc2c(c1)OCCCO2 | -8.6
CN(Cc1ccc2c(c1)OCO2)Cc1nc2c(cnn2C)c(=O)[nH]1 | 1.92
CCc1ncncc1C(=O)N1CCCN(Cc2ccc(C)cc2)CC1 | 20.1
Cc1cnn(CCNCC(=O)NCc2ccccc2)c1 | -12.3
Cc1nc(CN(C)C2CCN(Cc3sc(C)nc3C)C2)no1 (centres undefined) | -7.02
CN(Cc1ccco1)C(=O)CN1CCCC(Cn2cncn2)C1 (centres undefined) | -8.21
Cc1nn(C)c(C)c1C1CCCN1C(=O)CCCn1cccn1 (centres undefined) | -14.1
Cc1nc(CN2CCCN(CCOc3cccc(C#N)c3)CC2)no1 | 38.4

Compound | cytotoxicity at 70.5 h [%]
c1ccc(Cn2cc(CNCC3CCCN3c3cccnn3)cn2)cc1 (centres undefined) | 3.57
Cc1nc(C)n(CC2CN(Cc3cccnc3)CCO2)n1 (centres undefined) | -3.76
Cc1nc(C)n(CC2CN(Cc3cccc4c3OCCO4)CCO2)n1 (centres undefined) | 1.12
Cc1cc(CN2CCCC2c2c(C)nn(C)c2Cl)no1 (centres undefined) | 4.73
O=C(NCCc1ccsc1)Nc1cccnc1N1CCCC1 | 3.02
O=C(CCNC(=O)C1CCCC1)NCc1cccnc1-n1cncn1 | -9.48
Cc1noc(NC(=O)c2ccc(OC(F)(F)F)cc2)n1 | 55.7
Cc1noc(NC(=O)c2ccc(Br)cc2)n1 | 48.3
Cc1nc(-c2ccccc2)sc1C(=O)NCCNc1ncccn1 | 1.41
Cc1nccn1-c1cc(CNC(=O)CCNC(=O)C2CCCC2)ccn1 | 2.73
Cc1ncsc1C(=O)NC1CCN(CC(=O)N(C)C(C)(C)C#N)CC1 | 28.1
CCN(Cc1ccco1)C(=O)Nc1cc(C(F)(F)F)c[nH]c1=O | 11.4
OCCn1nccc1C1CCN(CCCOc2ccc(F)cc2)CC1 | -1.62
Cc1cc(C)c(CNC(=O)NCC(c2ccccc2)N(C)C)c(=O)[nH]1 (centres undefined) | 7.25
O=C(c1ccc(N2CCCC2)nn1)N1CCCC(n2cccn2)C1 (centres undefined) | -1.11
Cc1cc(C)n(CC2CN(CCOc3cccc(F)c3)CCO2)n1 (centres undefined) | 1.51
O=C(NCC1CC1)N1CCN(Cc2ccc3c(c2)OCCO3)CC1 | 2.86
Cc1cnn(CC2CCCN2C(=O)c2cc(C)no2)c1 (centres undefined) | 25.6
CN(C)CC1CN(CCOc2cccc(C#N)c2)CCO1 (centres undefined) | 0.102
CCc1ncc2c(n1)CN(CC(=O)NCCOc1ccccc1)CC2 | -5.27
c1ccc(-n2ncc(CNCC3CCCN3c3cccnn3)n2)cc1 (centres undefined) | 5.2

Compound | cytotoxicity at 70.5 h [%]
O=C1COc2cc(C(=O)NS(=O)(=O)c3ccccc3F)ccc2N1 | 21.7
CC(NC(=O)CSCC(=O)Nc1ccccc1)c1ccccc1 (centres undefined) | -1.19
CCN(CC1CCOC1)C(=O)c1ccccc1N1CCOCC1 (centres undefined) | 18.7
CC(C(=O)N1CCCN(c2ncccc2C#N)CC1)n1ccnc1 (centres undefined) | 21.6
CC(C)CN(C)c1ccc(C(=O)N2CCCC2c2cnn(C)c2)cn1 (centres undefined) | 21.8
CSc1nccn1-c1cccc(C(=O)NCCCN2CCOCC2)c1 | 1.7
Cc1nc2ccnn2c(C)c1CCC(=O)N1CCN(C2CC2)CC1 | 15.8
COc1ccnc(N2CCN(C(=O)CN3CCCC3=O)CC2)n1 | 0.556
COC(=O)c1ccc(N2CCN(CCC(=O)NC(N)=O)C(C)C2)cc1 (centres undefined) | -6.28
Cc1noc(Cl)c1CC(=O)N1CCCC(n2cccn2)C1 (centres undefined) | -4.55
Cn1ccnc1CN1CCN(Cc2ccccc2C#N)CC1 | 6.78
Cc1nccn1C1CCCN(C(=O)c2ccc3c(c2)nnn3C)C1 (centres undefined) | -6.07
CCOCC(O)CN1CCN(C(=O)c2cnc3n[nH]c(C)c3c2)CC1 (centres undefined) | -2.39
CSc1nccn1-c1cccc(C(=O)NCc2nnc(C)n2C)c1 | 6.07
Cc1noc(C)c1CN1CCc2nn(C(C)C)c(=O)cc2C1 | 38.6
Cc1nc2ccnn2c(C)c1CCC(=O)N1CCC(C(N)=O)CC1 | 2.4
Cc1cnc2c(S(=O)(=O)NCC3CCN(C4CC4)C3)cccc2c1 (centres undefined) | -5.3
CCN(CC)CCNC(=O)c1cnc(C(C)(C)C)s1 | -6.77
CCc1ncc2c(n1)CN(Cc1nc(-c3ccsc3)no1)CC2 | -6.7
Cc1nn(C)c(C)c1CC(=O)N1CCCC(n2ccnc2)C1 (centres undefined) | -3.37
COc1ccc(CC(=O)N2CCCC2Cn2cccn2)cc1F (centres undefined) | -9.94
